Values of other authors in patent US20030195350A1, “Individualization of therapy with antiviral agents” (priority 2001, published 2003).
Like-named read-outs stand apart in the source and are kept apart here.

Tests used:
[1] = in vivo; cited from earlier work
[2] = cited from earlier work; for AUC (mean±SD): single 600 mg dose, non-fasting
HIV isolates = conditions: one ZDV-resistant HIV isolate in vitro; cited from earlier work
HIV = conditions: cited from earlier work
HIV-1 = conditions: cited from earlier work
[3] = in vivo; cited from earlier work; remark: listed apart in the source

## CC(C)c1nc(CN(C)C(=O)N[C@H](C(=O)N[C@@H](Cc2ccccc2)C[C@H](O)[C@H](Cc2ccccc2)NC(=O)OCc2cncs2)C(C)C)cs1 (relative stereo) [ritonavir, 10-Hydroxy-2-methyl-5-(1-methylethyl)-1-[2-(1-methylethyl)-4-thiazolyl]-3,6-dioxo-8,11-bis(phenylmethyl)-2,4,7,12-tetraazatridecan-13-oic acid, 5-thiazolylmethyl ester, [5S-(5R*,8R*,10R*,11R*)]]
[1]
  Adverse event: Depression: 1.7%
  Adverse event: Fecal Incontinence: 0.0%
  Adverse event: Vasodilation: 1.7%
[2]; HIV-infected individuals ages 2 to 14 years
  steady-state oral clearance (CL/F/m^2), pediatric vs adult: approximately 1.5 times
[2]; in vivo, po
  dose excreted in the feces: 86.4±2.9 % of the dose
  dose excreted in the feces as unchanged parent drug: 33.8±10.8 % of the dose
  dose excreted into the urine: 11.3±2.8 % of the dose
  dose excreted into the urine as unchanged parent drug: 3.5±1.8 % of the dose
  effect of dilution of oral solution on extent and rate of absorption: did not significantly affect
[2]; in vivo
  renal clearance: negligible
[2]; oral solution (n=18)
  AUC (mean±SD): 129.0 ± 39.3 µg·h/mL
[2]; soft gelatin capsule (n=57)
  AUC (mean±SD): 121.7 ± 53.8 µg·h/mL
HIV isolates
  susceptibility of ZDV-resistant HIV isolate: retained full susceptibility
HIV; double-blind phase of Study 247, 600 mg b.i.d.
  cumulative incidence of clinical disease progression or death: 26%
HIV; through end of open-label follow-up phase, Study 247
  cumulative mortality: 18%
HIV-1; MT 4 cells, with either zidovudine (ZDV) or didanosine (ddI)
  effect against HIV-1 in combination: additive effects
HIV-1; read-out: average EC50, low passage clinical isolates (n=13)
  EC50: 22 nM
[3]
  Adverse event: Depression: 1.7%
  Adverse event: Diarrhea: 15.4%
  Adverse event: Fecal Incontinence: 0.0%
  Adverse event: Vasodilation: 1.7%
